Values after ≈ are worked out from the molar mass of the structure shown. Like-named read-outs stand apart in the source and are kept apart here.
How the values were obtained:
OXA-48:P68A [1] = biological target: T1, OXA-48:P68A (Klebsiella pneumoniae, UniProt Q6XEC0, P68A); assay: Steady-state enzyme kinetics, OXA-48:P68A; type: biochemical; details: for kcat / Km: substrate hydrolysis, 25°C, pH 7.0, error = 95% CI
OXA-48:P68A [2] = biological target: T1, OXA-48:P68A; assay: IC50 with nitrocefin as reporter substrate, OXA-48:P68A; type: biochemical; details: P68A compared to native OXA-48
[3] = test system: MP104 (E. coli TOP10 expressing native OXA-48); assay: MIC determination, TOP10 expressing native OXA-48 (MP104); type: cell-based; details: Escherichia coli; Table 3; MP104, native OXA-48 in pCR-blunt II TOPO
Description: (§1) For MIC determination, single colonies were suspended in 0.9% saline buffer to a 0.5 McFarland standard and further diluted 1:100 in MH broth. Fifty microliters of the bacterial suspension was loaded onto in-house-designed and premade Sensititre microtiter plates (TREK Diagnostic Systems/Thermo Fisher Scientific, East Grinstead, United Kingdom). The plates were incubated for 20 h at 37°C. Antibiotic susceptibility testing was performed in duplicates.
For a functional resistance profile, the native and mutated blaOXA-48 genes were cloned in the pCR-blunt II-TOPO vector (Invitrogen, CA) and expressed in E. coli TOP10 (Invitrogen, CA). The PCR product was obtained by Phusion High Fidelity PCR mastermix with High Fidelity buffer (New England Biolabs, MA) and preOXA-48 primers ([61]). Transformants were selected on LB agar plates containing 50 or 100 mg/liter ampicillin. Insertion size was verified by Sanger sequencing using M13 forward (5′-[…]-3′) and reverse (5′-[…]-3′) primers.

[4] = test system: MP105 (E. coli TOP10 expressing OXA-48:P68A); assay: microbe, parasite or virus in culture; type: cell-based; details: for MIC: Escherichia coli, Table 3, MP105, OXA-48:P68A in pCR-blunt II TOPO
[5] = test system: MP108 (MP100 transformed with p50579417_3_OXA-48-CAZ-AVI); assay: MIC determination, MP108 (MG1655 with CAZ-AVI-adapted plasmid); type: cell-based; details: Escherichia coli; Table 6; MP108, adapted plasmid p50579417-OXA-48-CAZ-AVI
Description: as §1

E. coli TOP10 = assay: microbe, parasite or virus in culture; type: cell-based; details: Escherichia coli, Table 3, read-out: MIC
Description: as §1

E. coli MG1655 (MP100) = assay: microbe, parasite or virus in culture; type: cell-based, Escherichia coli
Description: as §1

[6] = test system: MP101 (MP100 transformed with p50579417_3_OXA-48); assay: MIC determination, MP101 (MG1655 with native OXA-48 plasmid); type: cell-based, Escherichia coli
Description: Mueller-Hinton (MH) agar and broth were purchased from Thermo Fisher Scientific (East Grinstead, United Kingdom). Luria-Bertani (LB) broth, LB agar, ampicillin, amoxicillin, cefepime, CAZ, imipenem, meropenem, piperacillin, and tazobactam were obtained from Sigma-Aldrich (St. Louis, MO). Nitrocefin was purchased from Merck (Darmstadt, Germany). The characteristics of the clinical E. coli strain 50579417 harboring the OXA-48 plasmid (p50579417_3_OXA-48) have been described previously ([61], [62]). The plasmid p50579417_3_OXA-48 was conjugated into rifampin-resistant E. coli TOP10 and subsequently isolated using a plasmid mini-purification kit (Qiagen, Germany). E. coli MG1655 (DA4201) was electroporated with p50579417_3_OXA-48 as published previously ([63]). Transformants positive for blaOXA-48 were checked by PCR using REDTaq ready mix (Sigma-Aldrich, St. Louis, MO) and preOXA-48 primers ([61]).
as §1

[7] = test system: MP103 (MP101 subjected to CAZ-AVI); assay: MIC determination, MP103 (MP101 selected on CAZ-AVI); type: cell-based, Escherichia coli
Description: (§2) Ten milliliters of an MP101 culture was grown in MH broth at 37°C overnight and then centrifuged for 10 min at 4,000 × g, and the pellet was suspended in 1 ml MH broth. One hundred microliters was plated on MH agar containing increasing concentrations of either CAZ alone or in combination with AVI up to 2 mg/liter. For CAZ-AVI, we utilized the clinical ratio of 4:1, respectively. Colonies growing on the highest concentration were recovered and grown in a fresh overnight culture (MH broth) and subsequently plated on concentrations of CAZ or CAZ-AVI up to 32 mg/liter.
as §1

[8] = test system: MP102 (MP101 subjected to CAZ); assay: MIC determination, MP102 (MP101 selected on CAZ); type: cell-based, Escherichia coli
Description: as §2, §1

[9] = test system: MP107 (MP100 transformed with p50579417_3_OXA-48-CAZ); assay: MIC determination, MP107 (MG1655 with CAZ-adapted plasmid); type: cell-based; details: Escherichia coli; Table 6; MP107, adapted plasmid p50579417-OXA-48-CAZ
Description: as §1

[10] = Escherichia coli, MG1655, Table 6, MP100, read-out: MIC
[11] = Escherichia coli, Table 6, MP101, native plasmid, read-out: MIC

T1 sequence (Q6XEC0 23-265 P68A): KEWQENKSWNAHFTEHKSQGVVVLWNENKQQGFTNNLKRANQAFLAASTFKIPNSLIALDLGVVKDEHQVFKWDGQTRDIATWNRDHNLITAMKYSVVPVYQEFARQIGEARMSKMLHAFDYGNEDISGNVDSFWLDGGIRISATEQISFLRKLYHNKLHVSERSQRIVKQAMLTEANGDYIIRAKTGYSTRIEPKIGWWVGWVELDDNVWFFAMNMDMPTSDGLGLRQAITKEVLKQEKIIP

SMILES	kcat (OXA-48:P68A [1]) [s⁻¹]	MIC [3] [µg/mL]	MIC [4] [µg/mL]	MIC [5] [µg/mL]	MIC (E. coli TOP10) [µg/mL]	MIC [9] [µg/mL]	MIC (E. coli MG1655 (MP100); [10]) [µg/mL]	MIC [6, 11] [µg/mL]	other results
CC1(C)S[C@@H]2[C@H](NC(=O)[C@H](N)c3ccccc3)C(=O)N2[C@H]1C(=O)O [AMP, ampicillin]	25 ± 1								Km (OXA-48:P68A [1]; read-out: Km): 77 ± 12 µM
NC(=O)[C@@H]1CC[C@@H]2CN1C(=O)N2OS(=O)(=O)O [Avibactam, avibactam]									change in the inhibitory activity (OXA-48:P68A [2]): no change
CC(C)(O/N=C(\C(=O)N[C@@H]1C(=O)N2C(C(=O)[O-])=C(C[n+]3ccccc3)CS[C@H]12)c1csc(N)n1)C(=O)O [CAZ, ceftazidime]	26 ± 3	0.5 (≈ 0.915 µM)	16 (≈ 29.3 µM)	32 (≈ 58.5 µM)	1 (≈ 1.83 µM)	16 (≈ 29.3 µM)			increased catalytic efficiency (kcat/Km) (OXA-48:P68A [1]; P68A compared to native OXA-48): > 10 fold; Km (OXA-48:P68A [1]): 220 ± 50 µM; MIC increase by P68A substitution ([4]; MP105 versus native OXA-48 (MP104)): 32 fold; MIC (E. coli MG1655 (MP100); Escherichia coli, MG1655, Table 2, strain MP100, duplicates, read-out: MIC): 0.25 µg/mL (≈ 0.457 µM); MIC (E. coli MG1655 (MP100); Table 6, MP100): 0.25 µg/mL (≈ 0.457 µM); MIC ([6]; Escherichia coli, Table 2, strain MP101, duplicates, read-out: MIC): 0.25 µg/mL (≈ 0.457 µM); MIC ([6]; Table 6, MP101, native plasmid): 0.25 µg/mL (≈ 0.457 µM); MIC ([7]; Escherichia coli, Table 2, strain MP103, after two-step CAZ-AVI selection): 32 µg/mL; MIC increase after CAZ-AVI selection ([7]; MP103 versus MP101): 128 fold; MIC ([8]; Escherichia coli, Table 2, strain MP102, after two-step CAZ selection): 32 µg/mL; MIC increase after CAZ selection ([8]; MP102 versus MP101): 128 fold
CO/N=C(\C(=O)N[C@@H]1C(=O)N2C(C(=O)O)=C(COC(N)=O)CS[C@H]12)c1ccco1 [CXM, cefuroxime]		16 (≈ 37.7 µM)	16 (≈ 37.7 µM)	8 (≈ 18.9 µM)	16 (≈ 37.7 µM)	16 (≈ 37.7 µM)	8 (≈ 18.9 µM)	16 (≈ 37.7 µM)	
C[C@@H](O)[C@H]1C(=O)N2C(C(=O)O)=C(S[C@@H]3CN[C@H](CNS(N)(=O)=O)C3)[C@H](C)[C@H]12 [DOR, doripenem]		0.03 (≈ 0.0713 µM)	0.03 (≈ 0.0713 µM)	0.03 (≈ 0.0713 µM)	0.03 (≈ 0.0713 µM)	0.03 (≈ 0.0713 µM)	0.015 (≈ 0.0357 µM)	0.03 (≈ 0.0713 µM)	
C[C@@H](O)[C@H]1C(=O)N2C(C(=O)O)=C(S[C@@H]3CN[C@H](C(=O)Nc4cccc(C(=O)O)c4)C3)[C@H](C)[C@H]12 [ETP, ertapenem]		1 (≈ 2.1 µM)	0.06 (≈ 0.126 µM)	0.12 (≈ 0.252 µM)	0.015 (≈ 0.0315 µM)	0.25 (≈ 0.526 µM)	0.015 (≈ 0.0315 µM)	1 (≈ 2.1 µM)	
CO/N=C(\C(=O)N[C@@H]1C(=O)N2C(C(=O)[O-])=C(C[N+]3(C)CCCC3)CS[C@H]12)c1csc(N)n1 [FEP, cefepime]	0.5 ± 0.1	0.12 (≈ 0.25 µM)	0.25 (≈ 0.52 µM)	0.25 (≈ 0.52 µM)	0.06 (≈ 0.125 µM)	0.5 (≈ 1.04 µM)	0.06 (≈ 0.125 µM)	0.25 (≈ 0.52 µM)	Km (OXA-48:P68A [1]): 462 ± 126 µM

Source: article PMC6437269, “OXA-48-Mediated Ceftazidime-Avibactam Resistance Is Associated with Evolutionary Trade-Offs” (mSphere, 2019)
